Assay results published in patent US4636569A, “Pharmaceutical compositions containing compounds with a flavanone skeleton, process for the preparation of the said compound and novel compounds obtained” (Inverni Della Beffa S.p.A., priority 1983, dated 1987).
Where a name gives a salt, the structure may show the parent alone.

Assays:
mice = test: Acute toxicity in mice (oral route); format: in vivo; details: no deaths occurred at a dose rate of 3000 mg/kg
Text: (§1) ACUTE TOXICITY (LD50 in mice (oral route)

amount of expectoration = test: Expectorant activity in the rabbit (Perry and Boyd method); format: in vivo; details: Oryctolagus cuniculus, po
Description: The expectorant activity has also been monitored by the Perry and Boyd method (J. Pharmacol. Exp. Ther. 7 580, 1941), in which the direct amount of expectoration is determined in the rabbit.

[1] = test system: colouring matter excreted in the bronchial liquid; test: Expectorant activity in mice (Nawatarih fluorescein method); format: in vivo; details: for ED50: Mus musculus, mice, oral, read-out: ED50 (dose capable of incrementing the excretion of the colouring matter by 50%)
Description: The expectorant activity of the compounds of the invention was evaluated by the method of Nawatarih (Kagoshima Daigaku Igaku Zasshi 27, 561, 1976) with fluorescein, according to which the increment of colouring matter excreted in the bronchial liquid is determined experimentally in mice. In the experiments the activity of 6,8-dimethyl-5,7,3',4'-tetrahydroxyflavanone was evaluated in comparison with that of bromhexine hydrochloride as reference standard. The results, given in Table 1, are expressed in ED50 (dose capable of incrementing the excretion of the colouring matter by 50%).

[2] = test system: bile flow and excretion of cholate; test: Choleretic activity in rats; format: in vivo; details: dose 200 (unit not given); for Bile flow: n=10, controls 2.72 ± 0.11, ** P < 0.01, *** P < 0.001; for Total cholate: n=10, controls 11.64 ± 0.19, ** P < 0.01
Text: The choleretic activity, compared to that of catechol, has been determined in rats by measuring both the bile flow and the excretion of cholate (cholic acid).

[3] = Acute toxicity in mice (oral route); format: in vivo; details: mouse, in vivo
Text: as §1

[4] = test system: olive oil induced hyperlipaemia; test: Hypolipaemic activity in rats (olive oil induced hyperlipaemia); format: in vivo; details: for Triglycerides / NEFA: n=6, m ± ES; for Triglycerides: controls 252 ± 18; for NEFA: controls 1017 ± 39
Description: The hypolipaemia-producing activity was evaluated in other tests in which the variations in cholesterol, triglycerides, NEFA (non-esterified fatty acids) and various lipoprotein fractions were determined.
In Table 3 there is reported the effect of 6,8-dimethyl-5,7,4'-trihydroxyflavanone and of nicotinic acid in combatting olive oil induced hyperlipaemia in rats fasted for 16 hours. The substances under test were administered orally two hours before the lipid load and the hyperlipaemia was induced by administering orally 20 ml/kg of olive oil.
Sacrifice took place three hours after the administration of the oil.

[5] = known flavanones of extractive origin; cited from earlier work

Structure (SMILES): Cc1c(O)c(C)c2c(c1O)C(=O)CC(c1ccc(O)c(O)c1)O2 (stereo not shown) [6,8-dimethyl-5,7,3',4'-tetrahydroxyflavanone]
- LD0 (mice): 3000 mg/kg
- ED50 (amount of expectoration): 200 mg/kg
- ED50 [1]: 78 mg/kg
- therapeutic index ([1]; vs bromhexine, from ED50 and acute oral toxicity in mice): distinctly more favourable than that of bromhexine

Structure (SMILES): Oc1ccccc1O [(+) Catechol, catechol]
- Bile flow [2]: 4.13 ± 0.4 ml/4 h
- Total cholate [2]: 13.03 ± 0.35 mg/4 h

Structure (SMILES): CN(Cc1cc(Br)cc(Br)c1N)C1CCCCC1 [Bromhexine HCl, bromhexine hydrochloride]
- LD50 [3]: 2140 mg/kg
- ED50 [1]: 51 mg/kg

Structure (SMILES): O=C(O)c1cccnc1 [Nicotinic acid, nicotinic acid]
- Triglycerides ([4]; 173 mg/kg os): 71 ± 6 mg/100 ml
- NEFA ([4]; 173 mg/kg os): 709 ± 33 uEq/1
- NEFA, change (in parentheses) ([4]; 173 mg/kg os, vs controls): -30
- Triglycerides, change (in parentheses) ([4]; 173 mg/kg os, vs controls): -72

Structure (SMILES): O=C1C[C@@H](c2ccc(O)c(O)c2)Oc2cc(O)cc(O)c21 [eriodictyol]
- expectorant and mucolytic activity [5]: display expectorant and mucolytic activity

Structure (SMILES): Cc1c(O)c(C)c2c(c1O)C(=O)CC(c1ccc(O)cc1)O2 (stereo not shown) [6,8-Dimethyl-5,7,4'-trihydroxyflavanone, 6,8-dimethyl-5,7,4'-trihydroxyflavanone]
- Bile flow [2]: 5.25 ± 0.18 ml/4 h
- Total cholate [2]: 15.23 ± 0.97 mg/4 h
- Triglycerides ([4]; 50 mg/kg os): 198 ± 7 mg/100 ml
- NEFA ([4]; 50 mg/kg os): 702 ± 23 uEq/1
- NEFA, change (in parentheses) ([4]; 50 mg/kg os, vs controls): -31

Structure (SMILES): Cc1c(O)c(C)c2c(c1O)C(=O)C[C@@H](c1ccc(O)cc1)O2 [farrerol]
- expectorant and mucolytic activity [5]: display expectorant and mucolytic activity
